From paper PMC12605013, “SAG1.3-derived Frizzled-targeting small-molecule compounds” (The Journal of Biological Chemistry, 2025)

Test system: HPAF-II cells
Experiment: Cell viability (AlamarBlue) of HPAF-II cells
Assay type: cell-based, human
Settings: one-week treatment; 10 µM
Procedure: HPAF-II cells and PANC-1 cells were seeded in DMEM at a density of 1000 cells per well into a black opaque 96-well plate (Greiner BioOne). After 1 day, the medium was exchanged with complete DMEM containing either compound 11, the porcupine inhibitor C59, or DMSO (vehicle control). After 3 days of incubation (37 °C, 5% CO2), the medium was exchanged once again with DMEM containing the same concentration of ligands or DMSO (vehicle control). Three days after (equal to 7 days after seeding), the medium was removed and 90 μl of fresh DMEM (without any ligands) were added. Last, 10 μl of AlamarBlue HS reagent (Thermo Fisher Scientific; catalog no.: A50100) were added to each well, and the cells were incubated for 4 h at 37 °C inside the incubator (5% CO2). After the incubation step, fluorescence was read using a TECAN Spark multimode microplate reader (excitation: 535 ± 25 nm, emission: 595 ± 35 nm).
For each cell viability experiment, the fluorescence measured in ligand-treated wells was normalized to the average fluorescence from wells treated with vehicle control (DMSO).

CC(=O)Nc1cccc(C(=O)NC2CCC(N(Cc3cccc(-c4ccncc4)c3)C(=O)c3sc4ccccc4c3Cl)CC2)c1 (stereo not shown) [compound 11, N-((1r,4r)-4-(3-Acetamidobenzamido)cyclohexyl)-3-chloro-N-(3-(pyridin-4-yl)benzyl)benzo[b]thiophene-2-carboxamide]
Cell viability of RNF43-negative HPAF-II cells: strongly reduced
